Values after ≈ are worked out from the molar mass of the structure shown.
Columns and labels:
A549 = experiment: Cytotoxicity against human A549 cells by MTT assay; format: functional; details: read-out: ED50 (the source's name)
HT-29 = experiment: Cytotoxicity against human HT-29 cells by MTT assay; format: functional; details: read-out: ED50 (the source's name)
MIA PaCa-2 = experiment: Cytotoxicity against human PaCa2 cells by MTT assay; format: functional; details: read-out: ED50 (the source's name)
A498 = experiment: Cytotoxicity against human A-498 cells by MTT assay; format: functional; details: read-out: ED50 (the source's name)
MCF7 = experiment: Cytotoxicity against human MCF7 cells by MTT assay; format: functional; details: read-out: ED50 (the source's name)
PC-3 = experiment: Cytotoxicity against human PC-3 cells by MTT assay; format: functional; details: read-out: ED50 (the source's name)
[1] = Toxicity in brine shrimp; format: organism-based; details: artemia, in vivo
Aedes aegypti = experiment: Pesticidal activity against yellow fever mosquito larvae by microtiter plate assay; format: functional

| SMILES | EC50 (A549) [µg/mL] | EC50 (HT-29) [µg/mL] | EC50 (MIA PaCa-2) [µg/mL] | EC50 (A498) [µg/mL] | EC50 (MCF7) [µg/mL] | EC50 (PC-3) [µg/mL] | LC50 [1] [µg/mL] | LC50 (Aedes aegypti) [µg/mL] |
| --- | --- | --- | --- | --- | --- | --- | --- | --- |
| COc1cccc2c1C(=O)c1c(O)c3c(c(O)c1C2=O)C[C@@](O)(C(=O)CO)C[C@@H]3O[C@H]1C[C@H](N)[C@H](O)[C@H](C)O1 [DOXORUBICIN] | 0.017 (≈ 0.0313 µM) | 0.031 (≈ 0.057 µM) | 0.023 (≈ 0.0423 µM) | 0.019 (≈ 0.035 µM) | 0.21 (≈ 0.386 µM) | 0.062 (≈ 0.114 µM) | – | – |
| CCCCCCCCCCCCC(=O)C[C@@H]1C[C@@H](O)[C@@H](CC[C@H](O)[C@@H]2CC[C@@H](CCCCCC(O)CC3=CC(C)OC3=O)O2)O1 (stereo not given in full) [GONIOTRICIN] | 0.033 (≈ 0.0518 µM) | 0.0012 (≈ 0.00188 µM) | 1.4 (≈ 2.2 µM) | 0.0011 (≈ 0.00173 µM) | 0.0033 (≈ 0.00518 µM) | 0.26 (≈ 0.408 µM) | 2.7 (≈ 4.24 µM) | 3.6 (≈ 5.65 µM) |
| C=C(C)[C@H]1Cc2c(ccc3c2O[C@@H]2COc4cc(OC)c(OC)cc4[C@@H]2C3=O)O1 [ROTENONE] | – | – | – | – | – | – | – | 0.3 (≈ 0.761 µM) |
